The target in series [1] is T1, Escherichia coli DAP-epimerase (E.C. 5.1.1.7) (Escherichia coli, UniProt P0A6K1).
T1 construct: endogenous in cells; host or cells: E. coli PR7; Endogenous enzyme purified by ammonium sulfate 30-45%, DE52 and Matrix green A dye-ligand column
Put plainly: Inhibition of Escherichia coli DAP-epimerase (E.C. 5.1.1.7). The series is classed as biochemical, Escherichia coli (PR7). As for the experimental part: Strains were inoculated into Nutrient bath (5 ml) and grown up overnight (16 hours) at 37° C. Small amounts of cells were obtained in shake flask cultures (50 ml-1000 ml) obtained by innoculating Igarashi medium (Igarashi et al., 1979), with 2% of the starter culture. Cells were harvested at late-log (OD 540 nm 0,7-0,8) and rinsed before storage at -20° C. Larger amounts of cells were obtained using an overnight culture (Igarashi medium) of 2,5 l as innoculum for 80 l of Igarashi medium in a Biolaffite Fermenter. Cells were harvested in late-log (OD 540 nm 2.0) using a filtration system for cell concentration (40 fold) followed by centrifugation.
Cells from E. Coli (PR7), usually in batches of 40 g, were suspended in 100 ml buffer A (20 mM potassium phosphate 1 mM EDTA, 1 mM DTT, pH 7.0) by using the Ultraturrax apparatus (10 min). Passage through the French press (20,000 lbs/sq ins) and centrifugation 30,000 xg for 20 min gave the S30 crude extract. The supernatent was fractionated by adding solid ammonium sulfate to 30%, centrifugation was followed by further ammonium sulfate to 45%. The precipitated protein was dissolved in buffer to give a final volume of 10 ml which was dialysed overnight against 2,000 ml of buffer A.
The dialysed crude enzyme preparation was applied to a DEAE-cellulose column (2.3×49 cms) DES52, equilibrated with buffer A. The column was washed with 250 ml of buffer A and eluted with a linear gradiant formed by adding 250 ml of buffer A containing 0,22M KCl to 250 ml of buffer A. The flow rate was 25 ml/hr and 10 ml fractions were collected. DAP-epimerase eluted near the end of the gradiant at approximately 0,20M KCl. Pooled fractions containing DAPepimerase activity were dialysed overnight against 2,000 ml buffer A. Enzyme was concentrated by applying the dialysate to a smal DES52 column (0.9×10 cms), rinsing with 50 ml of buffer A and eluting with buffer A containing 0,50M KCl. The flow-rate was 20 ml/hr and 2,5 ml fractions were collected. Enzyme activity eluted immediately and pooled fractions were dialized against 1,000 ml buffer A.
A final purification step was obtained by applying the concentrated dialysed enzyme to a dye ligand column (1,4×5 cms), Matrix green A, rinsing with 50 ml buffer A and then eluting with 50 ml of buffer A containing 1,2M […] collecting 5 ml fractions. Pooled fractions were dialysed and concentrated on a small DE52 as described above.
(§1) DAP-epimerase activity was routinely measured at 25° C. Reaction mixtures contained 0.1M Tris HCl (pH 7,8), 1 mH EDTA, 1 mM DTT and […] of [G-^3 H]DAP in a total volume of 0.10 ml. After incubation for 40 min, reaction mixtures were quenched with 0.5 ml of 10% TCA and applied to 1 ml of AG50×4 ion-exchange resin (H' form) contained in a column (about 0.4×2 cms) fashioned from a blue pipette cone. The column was washed with 3×0.5 ml of water and the combined eluants counted for radioactivity.
(§2) In vitro DAP-epimerase, purified as described above, was incubated at 25° C. with various concentrations of δ-fluoro-ε-carboxylysine (usually 0, 10, 20, 40, 80 and […]) as described in the enzyme assay above.
*Values determined by Dixon plots (Ref. Dixon, M., 1972).

In series [2] the target is T2, DAP-epimerase (EC 5.1.1.7) (Serratia marcescens, UniProt A0A0G3SSC4).
T2 sequence (A0A0G3SSC4 1-274): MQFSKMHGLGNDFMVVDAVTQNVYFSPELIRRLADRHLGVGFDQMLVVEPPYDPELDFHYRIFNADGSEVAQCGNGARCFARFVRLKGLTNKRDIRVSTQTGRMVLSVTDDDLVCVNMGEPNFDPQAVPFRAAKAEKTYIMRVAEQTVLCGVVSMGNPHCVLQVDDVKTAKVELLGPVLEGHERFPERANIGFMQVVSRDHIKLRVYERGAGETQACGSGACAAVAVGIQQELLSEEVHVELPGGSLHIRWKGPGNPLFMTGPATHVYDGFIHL
Put plainly: Inhibition of DAP-epimerase partially purified from Serratia marcescens. The series is classed as biochemical, Serratia marcescens (ATCC 8100). The following applies: enzyme partially purified from S. marcescens (ATCC 8100) through to the first DE52 column. As for the experimental part: as §1, §2
(§3) **DAPepimerase was partially purified from each organism as described
(§4) (Example VII) through to the first DE52 column except that with Aerobacte

Series [3] addresses T3, DAP-epimerase (EC 5.1.1.7) (Pseudomonas aeruginosa, UniProt Q51564).
T3 construct: **DAPepimerase was partially purified from each organism as described; endogenous in cells; host or cells: Pseudomonas aeruginosa ATCC 25619; Purified through the first DE52 column
T3 sequence (Q51564 1-276): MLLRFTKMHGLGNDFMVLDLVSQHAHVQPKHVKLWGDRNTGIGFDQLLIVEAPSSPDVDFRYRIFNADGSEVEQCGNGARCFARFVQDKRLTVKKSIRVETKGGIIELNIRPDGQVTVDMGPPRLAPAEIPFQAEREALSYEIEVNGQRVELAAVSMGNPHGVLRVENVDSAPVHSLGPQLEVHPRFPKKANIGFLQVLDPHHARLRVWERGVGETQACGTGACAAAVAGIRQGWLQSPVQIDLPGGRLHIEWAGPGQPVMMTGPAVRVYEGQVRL
Put plainly: Inhibition of DAP-epimerase partially purified from Pseudomonas aerogenosa. The series is classed as biochemical, Pseudomonas aerogenosa (ATCC 25619). The settings on record: enzyme partially purified from P. aerogerosa (ATCC 25619) through to the first DE52 column. As for the experimental part: as §1, §2, §3, §4

Series [4] has as its system S. marcescens (ATCC 8100). The series is described as follows: MIC, serial dilutions in plates, S. marcescens. The settings on record: Serratia marcescens, ATCC8100. It is filed as cell-based. As for the experimental part:
(§5) The antibacterial spectrum and minimal inhibitory concentration (MIC) of typical compounds of the present invention are determined by one or more standard techniques. Thus, for example, serial dilutions of the compound being tested are made in tubes of rich medium containing no peptide […] (Atherton et al., 1979) or in plates containing the same medium plus agar. Series of tubes or plates of agar containing different concentrations of the test compound are inoculated with the cultures utilized to determine activity. After incubation for 24 hours at 37° C., the inoculated tubes or agar plates are examined for the inhibition of bacterial growth and an MIC is determined therefrom.
(§6) The following example illustrates the in vitro activity of the compounds of this invention against a variety of pathogenic organisms.
(§7) *Serial dilutions in plates as described by Atherton et al. (1979).

The subject of series [5] is P. aerogerosa (ATCC 25619). The series is described as follows: MIC, serial dilutions in plates, P. aerogerosa. The series is classed as cell-based. As for the experimental part: as §5, §6, §7
For series [6], the system named is E. coli (PR7). The series is described as follows: MIC, serial dilutions in plates, E. coli. The series is classed as cell-based. The settings on record: Escherichia coli. As for the experimental part: as §5, §6, §7
Series [7] has as its system A. aerogenes (62.1). Put plainly: MIC, serial dilutions in plates, A. aerogenes. It is filed as cell-based. The following applies: Klebsiella aerogenes. As for the experimental part: as §5, §6, §7
Series [8] can be described thus: In vivo studies: serum levels in mice by bioassay. Set-up: species or system CFW mice. The following applies: for Serum half-life: mice. As for the experimental part:
Groups of 3 fasted CFW mice (20 g±2) were dosed subcutaneously with 20, 50 or 100 mg/kg or orally with 50 or 100 mg/kg of δ-fluoro-ε-carboxylysyl-L-alanyl-L-alanine. At intervals of from 10 min to 210 min, after dosing animals were anesthetised with ether, and heparinized blood samples obtained by eye-puncture. Samples were kept on ice and the plasma removed. After dilution (1:1) with saline, aliquots were assayed for δ-fluoro-ε-carboxylysyl-L-alanyl-alanine by bioassay.
The antibacterial activity of δ-fluoro-ε-carboxylysyl-L-alanyl-alanine was determined by plate assay on "Roche" agar medium (adjusted to pH 6,5-see Atherton et al. (1979) using Aerobacter aerogenes as the test strain. Standard solutions of δ-fluoro-ε-carboxylysyl-L-alanyl-alanine were prepared by suitable dilutions in water (from the same solution used for injection) and 0,4 μg to 7,0 μg were applied to sterile discs (9 mm dia.) concomittently with serum samples. After overnight incubation at 37° C., zones of inhibition were measured across two diameters. A standard plot of zone diameter vs log. concentration of standards was prepared. The average serum concentration of δ-fluoro-ε-carboxylysyl-L-alanyl-alanine from 3 mice was taken from this standard plot. Control serum had no activity and 50% serum had no effect on the standard plot.

In brackets after ≈: the same amount, converted by molar mass. Where a name gives a salt, the structure may show the parent alone. Read-outs that look alike come from different tables or passages of the source.

T1 sequence (P0A6K1 whole entry): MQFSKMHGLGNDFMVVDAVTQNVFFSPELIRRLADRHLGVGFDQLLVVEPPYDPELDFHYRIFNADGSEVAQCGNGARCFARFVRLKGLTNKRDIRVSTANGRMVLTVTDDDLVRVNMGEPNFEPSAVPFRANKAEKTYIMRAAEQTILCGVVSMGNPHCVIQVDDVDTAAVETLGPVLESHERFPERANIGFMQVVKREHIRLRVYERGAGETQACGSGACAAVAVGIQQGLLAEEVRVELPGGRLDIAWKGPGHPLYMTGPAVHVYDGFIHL

Broadly, the IC50 is the concentration that gives 50% inhibition. As usually defined, the Ki is the dissociation constant of the complex between target and ligand, obtained from inhibition or displacement. Lower therefore signals a stronger hold on the target. In series [1], `NC(CCC(F)C(N)C(=O)O)C(=O)O` (stereo not drawn) [δ-fluoro-ε-carboxylysine, 3-fluoro-2,6-diaminopimelic acid] registered an IC50 of 1.35 µM. Further, the Ki in series [1] amounted to 7.7 µM; in series [2] it was 1000 nM; in series [3], 5.4 µM. Further, the “Inhibition after aliquots were removed and diluted 50-fold with the assay medium” value in series [1] (in vitro, enzyme incubated with inhibitor at 25° C., then diluted 50-fold) is “no inhibition was observed”.

One may read the MIC as the least concentration at which growth counts as inhibited. Higher therefore signals a need for much substance. As to `C[C@H](NC(=O)[C@@H](N)CCC(F)C(N)C(=O)O)C(=O)O` (stereo partly drawn) [δ-fluoro-ε-carboxylysylalanine, δ-Fluoro-ε-carboxylysyl-L-alanine], the MIC in series [4] was found to be 0.2 µg/mL (≈ 0.716 µM); in series [5] it was 0.8 µg/mL (≈ 2.86 µM); in series [6], 12.5 µg/mL (≈ 44.8 µM); in series [7], 6 µg/mL (≈ 21.5 µM).

For `C[C@H](NC(=O)[C@H](C)NC(=O)[C@@H](N)CCC(F)C(N)C(=O)O)C(=O)O` (stereo partly drawn) [δ-FLUORO-ε-CARBOXYLYSYL-L-ALANYL-L-ALANINE], the MIC in series [4] stood at 0.2 µg/mL (≈ 0.571 µM); in series [5], 100 µg/mL (≈ 285 µM); in series [6], 12.5 µg/mL (≈ 35.7 µM); in series [7], 12.5 µg/mL (≈ 35.7 µM). The Serum half-life in series [8] (P.O. (printed on the 50 mg/kg line)) is given as 64 min; in series [8] (S.C. (printed on the 50 mg/kg line)), 72 min. In series [8] (mouse, in vivo), the “Serum levels compared with minimum inhibition concentrations of infectious microorganisms” value is given as “consistently above the minimum inhibition concentrations”.

Consider `NC(CCC(Cl)C(N)C(=O)O)C(=O)O` (stereo not drawn) [δ-chloro-ε-carboxylysine, 1,5-diamino-2-chloro-1,5-pentanedicarboxylic acid, dihydrochloride], for which the inhibition constant Ki in series [1] turned out to be 0.5 µM. This counts as sub-micromolar.

Turning to `NC(CCC(F)(F)C(N)C(=O)O)C(=O)O` (stereo not drawn) [δ,δ-difluoro-ε-carboxylysine, 1,5-diamino-2,2-difluoro-1,5-pentanedicarboxylic acid, dihydrochloride], the IC50 in series [1] (purified E. coli DAP-epimerase, 25° C., read-out: IC50) came to 50 µM.

Values taken from patent publication US4730006A, “Derivatives of 2,6-diamino-3-haloheptanedioic acid” (Merrell Dow Pharmaceuticals Inc., priority 1986, dated 1988).
